These results are taken from patent US8053453B2, “Pyrazolone compounds and thrombopoietin receptor activator” (Nissan Chemical Industries, Ltd., priority 2002, dated 2011).

Test [1] deals with T1, human TPO receptor (Homo sapiens, UniProt P40238).
T1 construct: expressed in transfected cells
T1 sequence (P40238 26-635): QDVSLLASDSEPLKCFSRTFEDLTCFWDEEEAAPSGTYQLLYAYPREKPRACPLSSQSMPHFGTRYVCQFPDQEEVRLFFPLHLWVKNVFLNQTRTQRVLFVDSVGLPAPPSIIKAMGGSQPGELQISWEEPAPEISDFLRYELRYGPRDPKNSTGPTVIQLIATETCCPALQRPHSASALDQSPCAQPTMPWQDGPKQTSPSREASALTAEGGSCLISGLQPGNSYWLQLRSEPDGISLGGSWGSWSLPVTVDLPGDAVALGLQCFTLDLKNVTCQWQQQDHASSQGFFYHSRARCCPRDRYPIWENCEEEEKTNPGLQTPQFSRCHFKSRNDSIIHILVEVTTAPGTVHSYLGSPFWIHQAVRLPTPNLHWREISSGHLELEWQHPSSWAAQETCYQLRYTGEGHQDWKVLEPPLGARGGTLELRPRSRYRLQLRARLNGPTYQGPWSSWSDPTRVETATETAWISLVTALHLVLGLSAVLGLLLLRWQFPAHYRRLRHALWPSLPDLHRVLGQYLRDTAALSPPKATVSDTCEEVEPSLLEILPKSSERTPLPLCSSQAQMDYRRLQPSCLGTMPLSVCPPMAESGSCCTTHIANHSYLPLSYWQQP
As to the kind of experiment: Proliferation of TPO-dependent cell line UT7/EPO-mpl, WST-8 reagent (Assay Example 5). In kind it is cell-based. To be noted: WST-8, 4 days. The method, then:
Human leukemic cell line UT7/EPO-mpl was washed twice with PBS and suspended in IMDM containing 10% FBS at a cell density of 6×10^4 cells/ml. The cell suspension was transferred to a 96-well tissue culture plate (CORNING) in 100-μl aliquots. Then either TPO or the following Synthetic Examples, each dissolved in DMSO, were diluted 83-fold with IMDM containing 10% FBS and added to the aforementioned cell suspension in 20-μl aliquots. The suspension was incubated in a CO2 incubator (5% CO2, 37° C.) for 4 days. Cell proliferation was assayed using WST-8 reagent (Kishida Chemical, Co. Ltd.) according to instructions by the manufacturer. A 10-μl aliquot of 5 mM WST-8 reagent solution was added to each well of the tissue culture plate and the plate was incubated at 37° C. for 4 h. The formazan pigment generated was detected by measuring the absorbance at 450 nm with a 96-well microplate reader (Nihon Molecular Devices, SpectraMax 190). The concentration of each compound that yields a growth rate corresponding to 50% of the growth of human leukemic cell line UT7/EPO-mpl observed in the presence of 10 ng/ml TPO (EC50T) and the maximal growth rate achieved by the same compound (efficacy), expressed by taking the value with human leukemic cell line UT7/EPO-mpl in the presence of 10 ng/ml TPO as 100% standard, are summarized in Table 9.

Test [2] has as its target T1, human TPO receptor. As to the kind of experiment: Proliferation of TPO-dependent cell line UT7/EPO-mpl, MTT method (Assay Examples 1, 3, 4). In kind it is cell-based. The following applies: UT7/EPO-mpl cells; for EC50: concentration giving 50% of the maximum cell growth observed with the same compound; for Efficacy (%) (maximal growth rate) / Emax: value in the presence of 10 ng/ml TPO taken as 100% standard, method of Assay Example 1; for Emax: read-out: Efficacy (%) (maximal growth rate). How it is done: The reactivity of Synthetic Example 56, the compound of the present invention, with thrombopoietin (TPO) receptor was assayed using a human leukemic cell line, UT7/EPO-mpl.
UT7/EPO-mpl is a stable transformed cell line obtained by introducing into human leukemic cell line UT7/EPO a vector that induces expression of human TPO receptor (c-mp1) under control of a cytomegaloviral promoter by the method of Takatoku et al. (J. Biol. Chem., 272:7259-7263 (1997)). […] These two cell lines were subcultured in Iscove's modified Dulbecco's medium (IMDM; GIBCO) containing 10% fetal bovine serum (FBS; TRACE SCIENTIFIC) using a CO2 incubator (5% CO2, 37° C.).
The subcultured cells described above were washed twice with phosphate buffered saline (PBS) and suspended in IMDM containing 10% FBS at a cell density of 6×10^4 cells/ml. The cell suspension was transferred to a 96-well tissue culture plate (CORNING) in 100-μl aliquots. Then either TPO (PeproTech EC) or Synthetic Example 56 dissolved in dimethylsulfoxide (DMSO) was diluted 83-fold with IMDM containing 10% FBS and added to the aforementioned cell suspension in 20-μl aliquots. The suspension was incubated in a CO2 incubator (5% CO2, 37° C.) for 4 days. Cell proliferation was assayed according to the method of Mosmann et al. (J. Immunol. Methods, 65:55-63 (1983)). A 10-μl aliquot of 5 mg/ml MTT reagent (SIGMA) was added to each well of the tissue culture plate and the plate was incubated at 37° C. for 4 h. The formazan pigment generated was dissolved by adding 150 μl per well of 0.1 M HCl/isopropanol solution and the absorbance of the resulting pigment solution was measured at 550 nm with a 96-well microplate reader (BIO-RAD, M450).
The following Synthetic Examples were tested according to the method of Assay Example 1 to determine the maximal growth rate (efficacy), expressed by taking the value with human leukemic cell line UT7/EPO-mpl observed in the presence of 10 ng/ml TPO as 100% standard, and the concentration of each compound that yields a growth rate corresponding to 50% of the maximum cell growth observed with the same compound (EC50).
Synthetic Example 56, the compound of the present invention, and four compounds (Reference Synthetic Examples 1 to 4) described in a publication of international patent application (Publication No. WO01/34585, applied by SmithKline Beecham Corp.) were tested according to the method of Assay Example 1.

[3] abbreviates: read-out: EC50 (ng/ml) (converted).

Like-named read-outs stand apart in the source and are kept apart here.

For the compound `COC(=O)c1ccc(C(=O)NNC(C)=C2C(=O)N(c3ccc(Cl)nn3)N=C2C)cc1` [compound 101], the “EC50T (concentration yielding 50% of the growth observed with 10 ng/ml TPO)” value on human TPO receptor [1] is 0.018 µg/mL. Besides, at human TPO receptor [1] (growth with 10 ng/ml TPO = 100%), the “Efficacy (%) (maximal growth rate)” value is 100%. As to `CC1=NN(c2ccc(Cl)c(Cl)c2)C(=O)C1=C(C)NNC(=O)c1cccc(N)c1` [compound 78], on human TPO receptor [2], the “EC50” value was 0.015 µg/mL and the “Efficacy (%) (maximal growth rate)” value is reported as 69%. Take `CC1=NN(c2ccc(C(F)(F)F)cc2)C(=O)C1=C(C)NNC(=O)c1cccc(N)c1` [compound 91]: on human TPO receptor [2], the “EC50” value was 0.024 µg/mL and the “Efficacy (%) (maximal growth rate)” value turned out to be 81%. `CC1=NN(c2ccc(I)cc2)C(=O)C1=C(C)NNC(=O)c1cc2ccccc2cc1O` [compound 40]: at human TPO receptor [2], the “EC50” value amounted to 0.25 µg/mL and the “Efficacy (%) (maximal growth rate)” value is recorded as 37%. As for `COC(=O)c1ccc(C(=O)NNC(C)=C2C(=O)N(c3ccc(C(F)(F)F)cc3)N=C2C)cc1` [compound 10], the EC50 at human TPO receptor [2] (setting [3]) was 43.4 nM. Further, the Emax at human TPO receptor [2] was determined as 78%. Regarding `CC1=NN(c2ccc(C)c(C)c2)C(=O)C1=C(C)NNC(=O)c1cccc([N+](=O)[O-])c1` [compound 59], the EC50 on human TPO receptor [2] (setting [3]) is 58.9 nM. Moreover, the Emax at human TPO receptor [2] was 82%. As to `CC1=NN(c2ccc(C)c(C)c2)C(=O)C1=C(C)NNC(=O)c1ccc(C(=O)O)cc1` [compound 7], at human TPO receptor [2], the “EC50” value was 0.0022 µg/mL and the “Efficacy (%) (maximal growth rate)” value worked out at 99%. `CC1=NN(c2ccc(C(F)(F)F)cc2)C(=O)C1=C(C)NNC(=O)c1ccc(O)cc1` [compound 31]: on human TPO receptor [2], the “EC50” value amounted to 0.0052 µg/mL and the “Efficacy (%) (maximal growth rate)” value was determined as 63%. In the case of `CC1=NN(c2ccc(C(F)(F)F)cc2)C(=O)C1=C(C)NNC(=O)c1ccc([N+](=O)[O-])cc1` [compound 37], at human TPO receptor [2], the “EC50” value came to 0.14 µg/mL and the “Efficacy (%) (maximal growth rate)” value stood at 63%. On to `CC1=NN(c2cccc(C(F)(F)F)c2)C(=O)C1=C(C)NNC(=O)c1ccc(N)cc1` [compound 90], for which, at human TPO receptor [2], the “EC50” value is 0.021 µg/mL and the “Efficacy (%) (maximal growth rate)” value was 76%. `CC1=NN(c2ccc(C(F)(F)F)cc2)C(=O)C1=C(C)NNC(=O)c1cccc([N+](=O)[O-])c1` [compound 36]: on human TPO receptor [2], the “EC50” value stood at 0.059 µg/mL and the “Efficacy (%) (maximal growth rate)” value is 97%. `CC1=NN(c2cccc(C(F)(F)F)c2)C(=O)C1=C(C)NNC(=O)c1ccccc1[N+](=O)[O-]` [compound 50]: on human TPO receptor [2], the “EC50” value was 0.037 µg/mL and the “Efficacy (%) (maximal growth rate)” value amounted to 89%. For the compound `CC1=NN(c2ccc(C(C)(C)C)cc2)C(=O)C1=C(C)NNC(=O)c1cc(O)cc(O)c1` [compound 2], on human TPO receptor [2], the “EC50” value is 0.0063 µg/mL and the “Efficacy (%) (maximal growth rate)” value is recorded as 89%.

As to `CC1=NN(c2cccc(C(F)(F)F)c2)C(=O)C1=C(C)NNC(=O)c1cccc([N+](=O)[O-])c1` [compound 51], on human TPO receptor [2], the “EC50” value turned out to be 0.033 µg/mL and the “Efficacy (%) (maximal growth rate)” value came out at 73%.

As for `CC1=NN(c2ccccc2)C(=O)C1=C(C)NNC(=O)c1ccccc1[N+](=O)[O-]` [compound 21], on human TPO receptor [2], the “EC50” value is 0.29 µg/mL and the “Efficacy (%) (maximal growth rate)” value worked out at 39%. On to `CC1=NN(c2ccc(Cl)c(Cl)c2)C(=O)C1=C(C)NNC(=O)c1ccc(C(F)(F)F)cc1` [compound 79], for which, at human TPO receptor [2], the “EC50” value stood at 0.16 µg/mL and the “Efficacy (%) (maximal growth rate)” value came out at 81%.

As to `CC1=NN(c2ccc(C(C)(C)C)cc2)C(=O)C1=C(C)NNC(=O)c1ccc(N)cc1` [compound 69], on human TPO receptor [2], the “EC50” value worked out at 0.0057 µg/mL and the “Efficacy (%) (maximal growth rate)” value was determined as 89%. With `CC1=NN(c2ccccc2)C(=O)C1=C(C)NNC(=O)c1ccc([N+](=O)[O-])cc1` [compound 22], at human TPO receptor [2], the “EC50” value came out at 0.19 µg/mL and the “Efficacy (%) (maximal growth rate)” value was 50%.

`CC1=NN(c2ccc(C(C)(C)C)cc2)C(=O)C1=C(C)NNC(=O)c1ccccc1O` [compound 23]: on human TPO receptor [2], the “EC50” value amounted to 0.028 µg/mL and the “Efficacy (%) (maximal growth rate)” value was found to be 129%. In the case of `Cc1ccc(-n2nc(C)c(C=NN3CC(=O)N(c4cccc(C(=O)O)c4)C3=S)c2O)cc1C` [Reference Synthetic Example 3, 3-(3-carboxyphenyl)-1-[(1-{3,4-dimethylphenyl}-5-hydroxy-3-methyl-1H-pyrazol-4-ylmethylene)amino]-2-thioxoimidazolidin-4-one, reference compound], on human TPO receptor [2], the Emax turned out to be 7%. As for `CC1=NN(c2ccc(C(F)(F)F)cc2)C(=O)C1=C(C)NNC(=O)c1ccc(O)cc1O` [compound 33], on human TPO receptor [2], the “EC50” value stood at 0.0011 µg/mL and the “Efficacy (%) (maximal growth rate)” value was 96%. Turning to `CC1=NN(c2ccc(C)c(C)c2)C(=O)C1=C(C)NNC(=O)c1cc(O)cc(O)c1` [compound 3], at human TPO receptor [2], the “EC50” value came to 0.015 µg/mL and the “Efficacy (%) (maximal growth rate)” value is 82%. Take `CC1=NN(c2ccc(Cl)c(Cl)c2)C(=O)C1=C(C)NNC(=O)c1ccc(O)c(O)c1` [compound 65]: on human TPO receptor [2], the “EC50” value was 0.0089 µg/mL and the “Efficacy (%) (maximal growth rate)” value is given as 70%. As for `CC1=NN(c2ccc(C)c(C)c2)C(=O)C1=C(C)NNC(=O)c1ccc([N+](=O)[O-])cc1` [compound 60], on human TPO receptor [2], the “EC50” value is 0.1 µg/mL and the “Efficacy (%) (maximal growth rate)” value is 62%. On the same counts, the results for `CC1=NN(c2ccc(C)c(C)c2)C(=O)C1=C(C)NNC(=O)c1ccc(N)cc1` [compound 73] are 0.01 µg/mL and 84%.

With `COC(=O)c1ccc(C(=O)NNC(C)=C2C(=O)N(c3ccc(C(C)(C)C)cc3)N=C2C)cc1` [compound 4], at human TPO receptor [2], the “EC50” value stood at 0.015 µg/mL and the “Efficacy (%) (maximal growth rate)” value is given as 53%.

Take `CC1=NN(c2ccc(C)c(C)c2)C(=O)C1=C(C)NNC(=O)c1ccccc1[N+](=O)[O-]` [compound 58]: at human TPO receptor [2], the “EC50” value stood at 0.032 µg/mL and the “Efficacy (%) (maximal growth rate)” value stood at 110%.

On to `CC1=NN(c2cccc(C(F)(F)F)c2)C(=O)C1=C(C)NNC(=O)c1cccc(N)c1` [compound 89], for which, on human TPO receptor [2], the “EC50” value is 0.039 µg/mL and the “Efficacy (%) (maximal growth rate)” value worked out at 68%. For the compound `COC(=O)c1ccc(C(=O)NNC(C)=C2C(=O)N(c3cccc(C(F)(F)F)c3)N=C2C)cc1` [compound 8], the EC50 on human TPO receptor [2] (setting [3]) is 67.3 nM. Moreover, the Emax on human TPO receptor [2] was 52%.
